# Results from patent publication US10301261B2, “Substituted indoles as modulators of ROR-gamma” (Vitae Pharmaceuticals, LLC, priority 2015, dated 2019).
# What was measured:
# [1] = biological target: recombinant RORγ Ligand Binding Domain (LBD) protein (Homo sapiens (Human), UniProt P51449); test: Radio-Ligand RORγ Binding Assay (Assay 1); details: radio-ligand 25-hydroxy [26,27-3H]-cholesterol competition
# Experimental: Radio-Ligand RORγ Binding Assay (Assay 1)
# Compounds described herein were tested for ability to bind to RORγ in a cell-free competition assay with commercially available radio-ligand (RL), 25-hydroxy [26,27-^3H]-cholesterol (PerkinElmer, Cat. # NET674250UC), for a ligand binding site on a recombinant RORγ Ligand Binding Domain (LBD) protein expressed as a 6×His-Glutathione-S-Transferase (GST) fusion. […] The plate was shaken at 700 rpm for 20 min and incubated for 10 min at rt, after which 40 μL of poly-Lys YSi SPA beads (PerkinElmer, Cat. # RPNQ0010) were added to achieve 50 μg of the beads per well. The plate was incubated on an orbital shaker for 20 min and then for 10 min without agitation at rt. SPA signal for tritium beta radiation was registered on PerkinElmer Microbeta plate reader. […] The percent inhibition vs. concentration data were fit into a four-parameter model, and IC50 values were calculated from the fit as the concentrations corresponding to the inflection points on the dose-response curves. […]
# [2] = biological target: full-length RORγt in Jurkat cells (Homo sapiens (Human), UniProt P51449); test: RORγt 5×RORE Assay in Jurkat Cells (Assay 2); type: cell-based; details: RORγt 5×RORE Nanoluc reporter
# Chain of full-length RORγt in Jurkat cells (P51449 other isoform, or with tags, fused parts or gaps): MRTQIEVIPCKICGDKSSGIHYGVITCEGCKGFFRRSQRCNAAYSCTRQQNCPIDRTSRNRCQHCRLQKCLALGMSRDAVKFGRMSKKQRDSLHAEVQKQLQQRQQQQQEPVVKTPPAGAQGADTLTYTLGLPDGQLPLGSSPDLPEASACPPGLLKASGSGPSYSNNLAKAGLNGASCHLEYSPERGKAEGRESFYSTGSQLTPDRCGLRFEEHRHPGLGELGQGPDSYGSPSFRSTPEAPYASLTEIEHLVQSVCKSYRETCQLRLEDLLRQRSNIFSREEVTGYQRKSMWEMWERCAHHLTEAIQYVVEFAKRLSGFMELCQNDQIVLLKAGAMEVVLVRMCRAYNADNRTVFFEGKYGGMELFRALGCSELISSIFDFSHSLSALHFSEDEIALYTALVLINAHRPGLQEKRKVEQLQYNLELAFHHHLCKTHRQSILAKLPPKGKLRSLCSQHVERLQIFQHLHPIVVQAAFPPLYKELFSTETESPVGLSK
# Experimental: [formula] RORγt 5×RORE Assay in Jurkat Cells (Assay 2)
# Compounds described herein were tested for RORγ inverse agonist activity in a cell-based, transcriptional activity assay. […] (Promega, Cat. # N1021) using KpnI and HindIII restriction sites. […] Tested compounds were added to the cells in the same media (final concentration of DMSO was 0.1% (v/v)), and the plates were incubated at 37° C./5% CO2 for 16-18 hrs. Luciferase activity in the conditioned supernatants was determined with NanoGlo® assay reagents (Promega, Cat.# N1130).
# Chain of recombinant RORγ Ligand Binding Domain (LBD) protein (P51449 269-508): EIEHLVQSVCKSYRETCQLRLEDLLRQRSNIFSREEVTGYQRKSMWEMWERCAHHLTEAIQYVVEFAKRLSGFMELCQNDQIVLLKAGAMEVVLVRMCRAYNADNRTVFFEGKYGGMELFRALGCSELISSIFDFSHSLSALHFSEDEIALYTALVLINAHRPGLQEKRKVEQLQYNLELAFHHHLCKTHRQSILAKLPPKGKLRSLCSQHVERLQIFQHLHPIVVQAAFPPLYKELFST
Ki [1],IC50 [2],Molecule
< 100 nM,> 1000 nM,"CCn1c(OCC2CC2)nc2cc(C(=O)N[C@@H](CO)c3ccc(S(=O)(=O)CC)cc3)ccc21 [BE-17, (R)-2-(cyclopropylmethoxy)-1-ethyl-N-(1-(4-(ethylsulfonyl)phenyl)-2-hydroxyethyl)-1H-benzo[d]imidazole-5-carboxamide]"
< 100 nM,< 100 nM,"CCS(=O)(=O)c1ccc(CNC(=O)c2ccc3c(c2)nc(Cc2ccc(C(F)(F)F)cc2)n3C2CC2)cc1 [BE-36, 1-cyclopropyl-N-(4-(ethylsulfonyl)benzyl)-2-(4-(trifluoromethyl)benzyl)-1H-benzo[d]imidazole-5-carboxamide]"
< 100 nM,< 100 nM,"CCS(=O)(=O)c1ccc([C@H](CO)NC(=O)c2ccc3c(c2)nc(Oc2ccc(C(F)(F)F)cc2)n3C2CC2)cc1 [BE-7, (R)-1-cyclopropyl-N-(1-(4-(ethylsulfonyl)phenyl)-2-hydroxyethyl)-2-(4-(trifluoromethyl)phenoxy)-1H-benzo[d]imidazole-5-carboxamide]"
< 100 nM,< 100 nM,"CCS(=O)(=O)c1ccc([C@H](CO)NC(=O)c2ccc3c(c2)nc(CO[C@H]2CC[C@H](C(F)(F)F)CC2)n3C2CC2)cc1 (single isomer, unassigned) [BE-71.2]"
< 100 nM,< 100 nM,"CCS(=O)(=O)c1ccc([C@H](CO)NC(=O)c2ccc3c(c2)nc(OCc2ccc(C(F)(F)F)cc2)n3C2CC2)cc1 [BE-15, (R)-1-cyclopropyl-N-(1-(4-(ethylsulfonyl)phenyl)-2-hydroxyethyl)-2-((4-(trifluoromethyl)benzyl)oxy)-1H-benzo[d]imidazole-5-carboxamide]"
< 100 nM,100 to 1000 nM,"CCn1c(Cc2ccc(Cl)cc2)cc2cc(C(=O)N[C@@H](CO)c3ccc(S(=O)(=O)CC)cn3)ccc21 [IN-8, (R)-2-(4-chlorobenzyl)-1-ethyl-N-(1-(5-(ethylsulfonyl)pyridin-2-yl)-2-hydroxyethyl)-1H-indole-5-carboxamide]"
< 100 nM,< 100 nM,"CCS(=O)(=O)c1ccc(CNC(=O)c2ccc3c(c2)nc(Cc2ccc(OC(F)F)cc2)n3C2CC2)cc1 [BE-48, 1-cyclopropyl-2-(4-(difluoromethoxy)benzyl)-N-(4-(ethylsulfonyl)benzyl)-1H-benzo[d]imidazole-5-carboxamide]"
< 100 nM,< 100 nM,"CCS(=O)(=O)c1ccc(CNC(=O)c2ccc3c(c2)nc(C[C@H]2CC[C@H](C(F)(F)F)CC2)n3C2CC2)cc1 [BE-18.1, 1-cyclopropyl-N-(4-(ethylsulfonyl)benzyl)-2-((trans-4-(trifluoromethyl)cyclohexyl)methyl)-1H-benzo[d]imidazole-5-carboxamide]"
< 100 nM,< 100 nM,"CCn1c(Cc2ccc(C(F)(F)F)cn2)cc2cc(C(=O)N[C@@H](CO)c3ccc(S(=O)(=O)CC)cc3)ccc21 [IN-9, (R)-1-ethyl-N-(1-(4-(ethylsulfonyl)phenyl)-2-hydroxyethyl)-2-((5-(trifluoromethyl)pyridin-2-yl)methyl)-1H-indole-5-carboxamide]"

# More lines, now with the values behind:
Molecule,Ki [1],IC50 [2]
"CCS(=O)(=O)c1ccc([C@H](CO)NC(=O)c2ccc3c(c2)nc(OCC2CCC(F)(F)CC2)n3C2CC2)cc1 [BE-16, (R)-1-cyclopropyl-2-((4,4-difluorocyclohexyl)methoxy)-N-(1-(4-(ethylsulfonyl)phenyl)-2-hydroxyethyl)-1H-benzo[d]imidazole-5-carboxamide]",< 100 nM,< 100 nM
"CCS(=O)(=O)c1ccc([C@H](CO)NC(=O)c2ccc3c(c2)cc(Cc2ccc(C(F)(F)F)cc2)n3C2CC2)nc1 [IN-19, (R)-1-cyclopropyl-N-(1-(5-(ethylsulfonyl)pyridin-2-yl)-2-hydroxyethyl)-2-(4-(trifluoromethyl)benzyl)-1H-indole-5-carboxamide]",< 100 nM,< 100 nM
"1-ethyl-N-(4-(ethylsulfonyl)benzyl)-2-(((1s,4s)-4-(trifluoromethyl)cyclohexyl)methyl)-1H-indole-5-carboxamide [IN-17.2]",< 100 nM,> 1000 nM
"CNS(=O)(=O)c1ccc(CNC(=O)c2ccc3c(c2)nc(C[C@H]2CC[C@H](C(F)(F)F)CC2)n3C2CC2)cc1 [BE-33, 1-cyclopropyl-N-(4-(N-methylsulfamoyl)benzyl)-2-(((1r,4r)-4-(trifluoromethyl)cyclohexyl)methyl)-1H-benzo[d]imidazole-5-carboxamide]",< 100 nM,< 100 nM
"CCS(=O)(=O)c1ccc([C@H](CO)NC(=O)c2ccc3c(c2)nc(Cc2ccc(OC(F)(F)F)cc2)n3C2CC2)cc1 [BE-47, (R)-1-cyclopropyl-N-(1-(4-(ethylsulfonyl)phenyl)-2-hydroxyethyl)-2-(4-(trifluoromethoxy)benzyl)-1H-benzo[d]imidazole-5-carboxamide]",< 100 nM,< 100 nM
"CS(=O)(=O)c1ccc(CNC(=O)c2ccc3c(c2)nc(C[C@H]2CC[C@H](C(F)(F)F)CC2)n3C2CC2)cc1 [BE-30, 1-cyclopropyl-N-(4-(methylsulfonyl)benzyl)-2-(((1r,4r)-4-(trifluoromethyl)cyclohexyl)methyl)-1H-benzo[d]imidazole-5-carboxamide]",< 100 nM,< 100 nM
"CCn1c(Cc2ccc(C(F)(F)F)cc2)cc2cc(C(=O)NCc3ccc(S(=O)(=O)CC)cc3)ccc21 [IN-1, 1-ethyl-N-(4-(ethylsulfonyl)benzyl)-2-(4-(trifluoromethyl)benzyl)-1H-indole-5-carboxamide]",< 100 nM,< 100 nM
"CCS(=O)(=O)c1ccc(CNC(=O)c2ccc3c(c2)nc(C[C@H]2CC[C@H](C(F)(F)F)CC2)n3C2CC2)nc1 [BE-27.1, 1-cyclopropyl-N-((5-(ethylsulfoyl)pyridin-2-yl)methyl)-2-(((1r,4r)-4-(trifluoromethyl)cyclohexyl)methyl)-1H-benzo[d]imidazole-5-carboxamide]",< 100 nM,< 100 nM
"CS(=O)(=O)c1ccc([C@H](CO)NC(=O)c2ccc3c(c2)nc(C[C@H]2CC[C@H](C(F)(F)F)CC2)n3C2CC2)cc1 [BE-32, 1-cyclopropyl-N-((R)-2-hydroxy-1-(4-(methylsulfonyl)phenyl)ethyl)-2-(((1r,4R)-4-(trifluoromethyl)cyclohexyl)methyl)-1H-benzo[d]imidazole-5-carboxamide]",< 100 nM,< 100 nM
"CCS(=O)(=O)c1ccc(CNC(=O)c2ccc3c(c2)nc(Cc2ccc(C(F)(F)F)cc2)n3CC(F)(F)F)cc1 [BE-37, N-(4-(ethylsulfonyl)benzyl)-1-(2,2,2-trifluoroethyl)-2-(4-(trifluoromethyl)benzyl)-1H-benzo[d]imidazole-5-carboxamide]",< 100 nM,< 100 nM
"CCS(=O)(=O)c1ccc(CNC(=O)c2ccc3c(c2)cc(CN2CCC(C(F)(F)F)CC2)n3C2CC2)cc1 [IN-12, 1-cyclopropyl-N-(4-(ethylsulfonyl)benzyl)-2-((4-(trifluoromethyl)piperidin-1-yl)methyl)-1H-indole-5-carboxamide]",< 100 nM,< 100 nM
"CCS(=O)(=O)c1ccc([C@H](CO)NC(=O)c2ccc3c(c2)nc(Oc2ccc(C(F)(F)F)cc2)n3C2CC2)nc1 [BE-70, (R)-1-cyclopropyl-N-(1-(5-(ethylsulfonyl)pyridin-2-yl)-2-hydroxyethyl)-2-(4-(trifluoromethyl)phenoxy)-1H-benzo[d]imidazole-5-carboxamide]",< 100 nM,< 100 nM
